According to paper PMC10964573, “OCTN2- and ATB^0,+-targeted nanoemulsions for improving ocular drug delivery” (Journal of Nanobiotechnology, 2024):
Entries after “also recorded” stand apart in the source; their conditions may differ.

Experiment: Solubility of DEX in oils (shake flask)
Type: physicochemical
Settings: Labrafil M1944 CS versus medium-chain triglycerides, soybean oil, olive oil; 37 °C, 72 h
Protocol: The solubility of drug in oils is the basis for the selection of the oil phase. The solubility of DEX in various oils, including medium-chain triglycerides, soybean oil, olive oil, and Labrafil® M1944 CS was determined by the shake flask method. Briefly, an excessive amount of DEX was added to 1mL of oil in an Eppendorf tube and mixed in a water bath sonication. Then the tubes were placed in a water bath shaker at 37 ± 0.5 °C. After shaking for 72 h, the samples were centrifuged at 10,000 rpm for 10 min. The supernatant was extracted with ethanol solution by sonicating for 20 min and centrifuging at 10,000 rpm for 10 min. The DEX concentration in the supernatant was determined by high-performance liquid chromatography. […] Next, the effect of the amount of Labrafil® M1944 CS content on the physicochemical properties of the DEX NEs was screened (Table S1). When the amount of Labrifil® M 1944 CS was 50 mg, DEX NEs had higher drug content (0.64±0.003mg/mL) and EE (91.3±2.8%), and this formulation was selected to further prepare DEX SC-NEs.

- solubility in oil: high solubility; also recorded: highest
Structure (SMILES): C[C@@H]1C[C@H]2[C@@H]3CCC4=CC(=O)C=C[C@]4(C)[C@@]3(F)[C@@H](O)C[C@]2(C)[C@@]1(O)C(=O)CO [DEX, Dexamethasone]
